Patent US20240069010A1, “TISSUE ORGANOID BIOPRINTING AND HIGH-THROUGHPUT SCREENING METHODOLOGY” (priority 2020, published 2024)

Legend:
[1] = test system: BT-474 organoids; test: HSLCI mass tracking of bioprinted organoids in drug screening; assay type: cell-based; details: for Organoid Behavior (%) Gained Mass: mass increase >10%; for Organoid Behavior (%) Lost Mass: mass loss >10%; for Organoid Behavior (%) Stable: mass change <10%
Source text: (§1) Cells were bioprinted using a CELLINK BioX with a Temperature-Controlled Printhead. Gcode files were written to print the desired single-layer geometry. We wrote standardized blocks of Gcode encode the print path for the repeated geometries. MATLAB (MathWorks, Inc.) was used to integrate these standardized blocks into full Gcode files with the defined coordinates for each well. We used 8-well plates when printing the larger constructs as the depth of the well in a standard 24-well plate prohibited the use of 0.5″ length needles. Large rings were necessary to deposit a sufficient number of cells for RNA-Seq and IHC. Four rings with a diameter of 14.5 mm were printed for RNA sequencing (approximately 200,000 cells total), while four sets of concentric 14.5 mm, 12.5 mm, and 10.5 mm diameter rings were used for IHC analysis (approximately 500,000 cells total). We printed mini-squares with side length 3.9 mm for drug screening and HSLCI imaging. The mini-squares were inscribed within the circular well with sides parallel to the sides of the well plate. The open center of the constructs facilitates automatic manipulation with fluid handling equipment while the sides of the square are positioned to maximize the number of organoids imaged by HSLCI. The bioprinting process utilized the same material deposited for manually seeded organoids. A single cell suspension, aggregates or clusters in a 3:4 mixture of MammoCult™ and Matrigel® was prepared on ice. After vortexing briefly to homogenize, the mixture was transferred into a 3 mL syringe by removing the plunger and capping the opposite end. Once the plunger was replaced, the syringe was inverted, and bubbles were forced out of the tip. The material was then transferred to a room temperature 3 mL bioprinter cartridge (CELLINK) by connecting the syringe and cartridge with a double-sided female Luer lock adapter (CELLINK). Any air bubbles in the syringe were removed and the loaded cartridge was incubated in a rotating incubator (Enviro-Genie, Scientific Industries) for 30 minutes at the print temperature.
(§2) During the incubation period, the printer was sterilized with the built-in UV irradiation function and the printhead was set to the print temperature. […] The well masks were autoclaved prior to use. The masks were inserted into the well plate and pressed in contact with the glass surface. Rubber bands were used to hold the masks in place and ensure conformal contact was maintained throughout the plasma treatment. The well plates were treated with oxygen plasma in a PE-25 (Plasma Etch) for 30-90 seconds, 15 minutes prior to bioprinting. After plasma treatment, the well plate was placed in the bioprinter and Automatic Bed Levelling (ABL) was performed.
(§3) Once the incubation period ended, we attached a 0.5″ 25-gauge needle and loaded the cartridge into the pre-cooled printhead. We primed the needle by extruding a small volume of material at 15 kPa prior to calibrating the printer. Just before printing, we cleared the needle of the gelled material by extruding a small volume using 40 kPa prior to starting the print. To create constructs of the appropriate thicknesses, prints in 8-well plates were extruded at 15 kPa while prints in 96-well plates were extruded at 12-15 kPa. […] After printing, the constructs were incubated at 37° C. for at least 30 minutes to solidify the matrix and 100 μL of MammoCult™ medium was then added.
(§4) The HSLCI platform was installed inside a standard cell culture incubator. For all growth kinetics studies and drug screening, organoids were imaged in 96-well glass-bottom plates (Cellvis P96-1.5H-N) using a 40× objective (Nikon, NA 0.75). Organoids were seeded as single-cell suspensions in a 3:4 mixture of MammoCult™ and Matrigel® as described above and were grown at 37° C. and 5% CO2 in MammoCult™ medium supplemented with 1% antibiotic-antimycotic (Gibco 15240-062).

[2] = test system: MCF-7 organoids; test: as above; assay type: cell-based; details: for Mean mass of MCF-7 organoids, Mean mass ± SD: 48 hours of treatment; for Organoid Behavior (%) Stable / Organoid Behavior (%) Gained Mass / Organoid Behavior (%) Lost Mass: MCF-7 organoids; for Organoid Behavior (%) Stable: mass change <10%; for Organoid Behavior (%) Gained Mass: mass increase >10%; for Organoid Behavior (%) Lost Mass: mass loss >10%
Source text: as §1, §2, §3, §4

CN[C@@H]1C[C@H]2O[C@@](C)([C@@H]1OC)n1c3ccccc3c3c4c(c5c6ccccc6n2c5c31)C(=O)NC4 [Staurosporine, staurosporine]
Mean mass of BT-474 organoids, Mean mass ± SD ([1]; 1 μM, 6 hours of treatment): 1.38 ± 0.49 ng
Mean mass of BT-474 organoids, Mean mass ± SD ([1]; 1 μM, 48 hours of treatment): 0.70 ± 0.26 ng
Mean mass of BT-474 organoids, Mean mass ± SD ([1]; 1 μM, 48 hours of treatment, listed as staurosporine): 0.70 ± 0.26 ng
Mean mass of BT-474 organoids, Mean mass ± SD ([1]; 10 μM, 6 hours of treatment): 1.46 ± 0.72 ng
Mean mass of BT-474 organoids, Mean mass ± SD ([1]; 10 μM, 48 hours of treatment): 0.83 ± 0.72 ng
Mean mass of BT-474 organoids, Mean mass ± SD ([1]; 10 μM, 48 hours of treatment, listed as staurosporine): 0.83 ± 0.72 ng
Organoid Behavior (%) Gained Mass ([1]; BT-474 organoids, 0.1 μM, 12 h): 27.6%
Organoid Behavior (%) Lost Mass ([1]; BT-474 organoids, 0.1 μM, 12 h): 1.7%
Organoid Behavior (%) Stable ([1]; BT-474 organoids, 0.1 μM, 24 h): 50.0%
Organoid Behavior (%) Gained Mass ([1]; BT-474 organoids, 0.1 μM, 24 h): 45.8%
Organoid Behavior (%) Lost Mass ([1]; BT-474 organoids, 0.1 μM, 24 h): 4.2%
Organoid Behavior (%) Stable ([1]; BT-474 organoids, 0.1 μM, 48 h): 23.4%
Organoid Behavior (%) Gained Mass ([1]; BT-474 organoids, 0.1 μM, 48 h): 70.1%
Organoid Behavior (%) Lost Mass ([1]; BT-474 organoids, 0.1 μM, 48 h): 6.5%
Organoid Behavior (%) Stable ([1]; BT-474 organoids, 1 μM, 12 h): 47.6%
Organoid Behavior (%) Gained Mass ([1]; BT-474 organoids, 1 μM, 12 h): 19.0%
Organoid Behavior (%) Gained Mass ([1]; BT-474 organoids, 1 μM, 12 h, listed as staurosporine): 19%
Organoid Behavior (%) Stable ([1]; BT-474 organoids, 1 μM, 24 h): 29.5%
Organoid Behavior (%) Gained Mass ([1]; BT-474 organoids, 1 μM, 24 h): 13.6%
Organoid Behavior (%) Lost Mass ([1]; BT-474 organoids, 1 μM, 24 h): 56.8%
Organoid Behavior (%) Stable ([1]; BT-474 organoids, 1 μM, 48 h): 12.0%
Organoid Behavior (%) Gained Mass ([1]; BT-474 organoids, 1 μM, 48 h): 4.0%
Organoid Behavior (%) Lost Mass ([1]; BT-474 organoids, 1 μM, 48 h): 84.0%
reduction in the number of organoids that increased in size ([1]; BT-474 organoids, 1 μM, after 12 hours, compared to the control): 60%
Organoid Behavior (%) Stable ([1]; BT-474 organoids, 10 μM, 12 h): 64.3%
Organoid Behavior (%) Gained Mass ([1]; BT-474 organoids, 10 μM, 12 h): 7.1%
Organoid Behavior (%) Lost Mass ([1]; BT-474 organoids, 10 μM, 12 h): 28.6%
Organoid Behavior (%) Stable ([1]; BT-474 organoids, 10 μM, 24 h): 23.9%
Organoid Behavior (%) Gained Mass ([1]; BT-474 organoids, 10 μM, 24 h): 19.6%
Organoid Behavior (%) Lost Mass ([1]; BT-474 organoids, 10 μM, 24 h): 56.5%
Organoid Behavior (%) Gained Mass ([1]; BT-474 organoids, 10 μM, 48 h): 14.8%
Organoid Behavior (%) Lost Mass ([1]; BT-474 organoids, 10 μM, 48 h): 66.7%
Mean mass of MCF-7 organoids, Mean mass ± SD ([2]; 1 μM): 1.33 ± 1.07 ng
Mean mass of MCF-7 organoids, Mean mass ± SD ([2]; 1 μM, listed as staurosporine): 1.33 ± 1.08 ng
Mean mass of MCF-7 organoids, Mean mass ± SD ([2]; 10 μM): 1.26 ± 0.78 ng
Mean mass of MCF-7 organoids, Mean mass ± SD ([2]; 10 μM, listed as staurosporine): 1.26 ± 0.80 ng
Organoid Behavior (%) Stable ([2]; 0.1 μM, 12 h): 76.5%
Organoid Behavior (%) Gained Mass ([2]; 0.1 μM, 12 h): 8.8%
Organoid Behavior (%) Lost Mass ([2]; 0.1 μM, 12 h): 14.7%
Organoid Behavior (%) Stable ([2]; 0.1 μM, 24 h): 60.5%
Organoid Behavior (%) Lost Mass ([2]; 0.1 μM, 24 h): 23.3%
Organoid Behavior (%) Stable ([2]; 0.1 μM, 48 h): 38.2%
Organoid Behavior (%) Gained Mass ([2]; 0.1 μM, 48 h): 29.4%
Organoid Behavior (%) Lost Mass ([2]; 0.1 μM, 48 h): 32.4%
Organoid Behavior (%) Stable ([2]; 1 μM, 12 h): 82.1%
Organoid Behavior (%) Gained Mass ([2]; 1 μM, 12 h): 7.1%
Organoid Behavior (%) Lost Mass ([2]; 1 μM, 12 h): 10.7%
Organoid Behavior (%) Stable ([2]; 1 μM, 24 h): 71.4%
Organoid Behavior (%) Gained Mass ([2]; 1 μM, 24 h): 3.6%
Organoid Behavior (%) Lost Mass ([2]; 1 μM, 24 h): 25.0%
Organoid Behavior (%) Stable ([2]; 1 μM, 48 h): 73.3%
Organoid Behavior (%) Lost Mass ([2]; 1 μM, 48 h): 26.7%
Organoid Behavior (%) Stable ([2]; 10 μM, 12 h): 79.6%
Organoid Behavior (%) Gained Mass ([2]; 10 μM, 12 h): 2.0%
Organoid Behavior (%) Lost Mass ([2]; 10 μM, 12 h): 18.4%
Organoid Behavior (%) Stable ([2]; 10 μM, 24 h): 51.4%
Organoid Behavior (%) Gained Mass ([2]; 10 μM, 24 h): 0.0%
Organoid Behavior (%) Lost Mass ([2]; 10 μM, 24 h): 48.6%
Organoid Behavior (%) Stable ([2]; 10 μM, 48 h): 32.1%
Organoid Behavior (%) Gained Mass ([2]; 10 μM, 48 h): 3.6%
Organoid Behavior (%) Lost Mass ([2]; 10 μM, 48 h): 64.3%
